Literature values in patent publication US6338847B1, “Compositions and methods to disinfect contact lenses” (Allergan, priority 1993, dated 2002).

Test system: cyst form of acanthamoeba

In the case of `OO` [hydrogen peroxide], the “survival of cysts exposed to hydrogen peroxide” value (exposed for two hours) is given as “survived after two weeks”.

B1: lysozyme (protein, UniProt P61626 19-148, looked up)
Lysozyme C: KVFERCELARTLKRLGMDGYRGISLANWMCLAKWESGYNTRATNYNAGDRSTDYGIFQINSRYWCNDGKTPGAVNACHLSCSALLQDNIADAVACAKRVVRDPQGIRAWVAWRNRCQNRDVRQYVQGCGV
notes: cellulose and/or chitin decomposing enzyme component; a primary tear protein
In the case of B1, the “time to killing all the cysts” value (lysozyme included in the hydrogen peroxide solution) is given as no more than 30 min.
